Assay [1] concerns Mycobacterium tuberculosis. The experiment in a line: Binding affinity to Mycobacterium tuberculosis fatty acid synthase 1 at 350 uM by STD NMR spectrophotometric assay.
For assay [2], the system named is Mycobacterium tuberculosis. Kind of assay: Binding affinity to Mycobacterium tuberculosis fatty acid synthase 1 at 500 uM by STD NMR spectrophotometric assay.
In assay [3] the test system is Mycobacterium tuberculosis. The experiment in a line: Binding affinity to Mycobacterium tuberculosis fatty acid synthase 1 at 8 mM by STD NMR spectrophotometric assay.
The nature of assay [4]: Competitive inhibition of Mycobacterium tuberculosis fatty acid synthase 1 assessed as inhibition of NADPH oxidation by STD NMR spectrophotometric analysis.
Assay [5] is described as follows: Binding affinity to Mycobacterium tuberculosis fatty acid synthase 1 by STD NMR spectrophotometric analysis in presence of increasing concentration of NADPH.

Active and inactive are the calls of the source. No cut-off for these calls is given here.

For the compound `C/C=C/C/C=C/CCC(=O)[C@H]1O[C@H]1C(N)=O`, the outcome in assay [1] was Active. For `CC[C@@H](CO)NCCN[C@@H](CC)CO`, the result in assay [2] was inactive. Take `O=C(O)c1cnccn1`: the outcome in assay [3] was Active. As usually defined, the Ki is the dissociation constant of the complex between target and ligand, obtained from inhibition or displacement. In general, Kd refers to the equilibrium constant for the complex coming apart. With `NC(=O)c1cnccn1` [PYRAZINAMIDE], the Ki in assay [4] was 41 µM. The outcome in assay [3] was Active. Further, the Kd in assay [5] was 70 µM.

Values taken from ChEMBL document CHEMBL1914284, “Pyrazinamide, but not pyrazinoic acid, is a competitive inhibitor of NADPH binding to Mycobacterium tuberculosis fatty acid synthase I” (Bioorg Med Chem Lett, 2011).
